According to patent US8084453B2, “Alkyl substituted indoloquinoxalines” (Oxypharma AB, priority 2004, dated 2011):

How the values were obtained:
[1] = tested on: mAB/LPS-induced arthritic mice; test: mAb/LPS-induced arthritis in mice, hind paw thickness; format: in vivo; details: for Mean group values of hind paw thickness, day 0: day 0 (base-line); for Mean group values of hind paw thickness, day 0 / Mean group values of hind paw thickness, day 7 / Mean group values of hind paw thickness, day 9 / Mean group values of hind paw thickness, day 11: once daily (day 0-5) repeated subcutaneous administration; for Hind paw thickness vs vehicle control (corn oil): comparison with vehicle control (corn oil)
Text: Collagen-induced arthritis (CIA) in mice is widely used as an experimental model for rheumatoid arthritis (RA) in humans. CIA is mediated by autoantibodies which bind to a particular region of type II collagen, such as CB11 (CNBr-digested fragment of type II collagen).
Antibody-mediated CIA can be induced by iv injection of a combination of 4 different monoclonal antibodies (Arthrogen-CIA® mAb) generated by Arthrogen-CIA® mouse B-hybridoma cell lines.
Three of the mAbs recognize autoantigenic epitopes clustered within an 84 amino acid residue fragment, LyC2 (the smallest arthritogenic fragment of type II collagen) of CB11 and the fourth mAb reacts with LyC1 (FIG. 1). Importantly, all 4 mAbs recognize the conserved epitopes shared by various species of type II collagen and crossreact with homologous and heterologous type II collagen.
A cocktail of 4 monoclonal antibodies are used. These arthritogenic mAbs alone or in combination with bacterial LPS can induce severe arthritis within days instead of weeks (classic CIA model).
(A) A cocktail of 4 monoclonal antibodies to type II collagen (2 mg) is injected intravenously on day 0 followed by an intraperitoneal injection of LPS (50 μg) on day 3. Arthritis will develop on day 4 and reach its peak on day 7-8. The therapeutic effects of test compounds will be determined on day 7. […] formation and bone degradation will be more significant on day 14 and day 21 (not shown). (B) Authentic collagen-induced arthritis.
Measurement of arthritis. Hind paw thickness, left and right of each animal (9 animals in each group) was measured in mm on study days 0 (base-line), 7, 9 and 11 using a Mitutoyo Electronic Digital Caliper. […] Dexamethasone is a cortisone which suppresses inflammation and normal immune response, and is used systemically and locally to treat inflammatory disorders. Patients are for safety reasons treated with short courses of cortisones to bring the inflammation under control in the window between starting the DMARD or DMARD combination and the likely response time.
FIG. 3. Mean group values (mm) of hind paw thickness measured throughout the entire 11-day observation period in the mAB/LPS-induced arthritic mice following once daily (day 0-5) repeated subcutaneous administration of B-220 analogues, Dexamethasone (positive control) or corn oil (negative control).

[2] = tested on: collagen-induced arthritis (CIA) model; details: prior art patents; cited from earlier work
EAE model = details: prior art patents; cited from earlier work

Structure (SMILES) | melting point | Mean group values of hind paw thickness, day 0 [1] | Mean group values of hind paw thickness, day 7 [1] | Mean group values of hind paw thickness, day 9 [1] | Mean group values of hind paw thickness, day 11 [1] | treating RA in the collagen-induced arthritis (CIA) model [2] | treating MS in the EAE model (EAE model) | Hind paw thickness vs vehicle control (corn oil) [1]
Cc1cc2nc3c4cc(F)ccc4n(CC(N)=O)c3nc2cc1C [Compound C, 2,3-Dimethyl-9-fluoro-indolo[2,3-b]quinoxaline-6-yl-acetamide] | 316 to 319 °C | 2.2 mm | 3.1 mm | 3.0 mm | 2.8 mm |  |  | 
Cc1cc2nc3c4ccccc4n(CCN(C)C)c3nc2cc1C [Compound B-220, 2,3-dimethyl-6-(N,N-dimethylaminoethyl)-6H-indolo(2,3-b)quinoxaline, reference compound] |  | 2.2 mm | 3.1 mm | 3.0 mm | 2.8 mm | promising compound | promising compound | 
Cc1cc2nc3c4cc(Cl)ccc4n(CC(=O)NCCN(C)C)c3nc2cc1C [Compound E, 9-Chloro-2,3-dimethyl-6-(N,N-dimethylaminoethylamino-2-oxoethyl)-6H-indolo-[2,3-b]quinoxaline] |  | 2.2 mm | 2.3 mm | 2.3 mm | 2.3 mm |  |  | highly significant lower
Cc1cc2nc3c4cc(F)ccc4n(CC(=O)NCCN)c3nc2cc1C [Compound H, 2,3-Dimethyl-6-(aminoethylamino-2-oxoethyl)-9-fluoro-6H-indolo[2,3-b]quinoxaline] | 269 to 271 °C | 2.2 mm | 2.5 mm | 2.5 mm | 2.5 mm |  |  | highly significant lower
Cc1cc2nc3c4cc(Cl)ccc4n(CC(=O)O)c3nc2cc1C [Compound K, 2,3-Dimethyl-9-chloro-indolo[2,3-b]quinoxaline-6-yl acetic acid] | 331 to 332 °C |  |  |  |  |  |  | 
Cc1cc2nc3c4cc(F)ccc4n(CC(=O)O)c3nc2cc1C [Compound L, 2,3-dimethyl-9-fluoro-indolo[2,3-b]quinoxaline-6-yl-acetic acid] | 317 to 318 °C |  |  |  |  |  |  | 
C[C@@H]1C[C@H]2[C@@H]3CCC4=CC(=O)C=C[C@]4(C)[C@@]3(F)[C@@H](O)C[C@]2(C)[C@@]1(O)C(=O)CO [Dexamethasone, reference compound] |  | 2.2 mm | 2.3 mm | 2.3 mm | 2.3 mm |  |  | 
